Molecules are shown by their SMILES.

What all share (format): cell-based
The target of test [1] is T1, K2P10.1(TREK-2) (Mus musculus, UniProt Q8BUW1).
T1 construct: expressed in transfected cells; host or cells: Xenopus laevis oocytes injected with mRNA made from pGEMHE/pMO
In words: TEVC of K2P10.1(TREK-2) in Xenopus oocytes. The text has this: Constructs for murine K2P channels, including K2P2.1(TREK-1) (Gene ID 16526), K2P10.1(TREK-2) (Gene ID 72258), K2P4.1(TRAAK) (Gene ID 16528), K2P5.1(TASK-2) (Gene ID 16529), K2P3.1(TASK-1) (Gene ID 16527), K2P9.1(TASK-3) (Gene ID 223604), and K2P18.1(TRESK) (Gene ID 332396) in pGEMHE/pMO, were used for Xenopus oocyte experiments as previously described.[10],[26] Murine K2P2.1(TREK-1) (Gene ID 16526) was expressed in HEK-293 cells using a pIRES-EGFP construct as previously described.[26] Murine K2P13.1(THIK-1) (Gene ID 217826) and K2P1.1(TWIK-1) (Gene ID 16525) were cloned into pGEMHE/pMO for use in Xenopus oocytes. […]
Xenopus laevis oocytes were harvested in accordance with UCSF IACUC protocol AN129690 and digested in calcium-free ND-96 (96 mM NaCl, 2 mM KCl, 3.8 mM MgCl2) immediately following harvest, as previously described.[6],[10] […] Defolliculated stage V–VI oocytes were injected with 0.2–6.0 ng of mRNA in 50 nL, and currents were recorded 24–48 h after injection. mRNA was synthesized from plasmid DNA using mMessage mMachine Kit (T7 promoter, Ambion, Life Technologies) and purified using RNEasy Kit (Qiagen). […] Once stabilized basal currents were recorded, compounds were perfused at various concentrations in standard ND96 and currents were allowed to increase to stabilization before recording final current. […]

In test [2] the target is T2, K2P2.1(TREK-1) F185L (Mus musculus, UniProt P97438, F200L).
T2 construct: expressed in transfected cells; host or cells: Xenopus laevis oocytes, mRNA injected
T2 sequence (P97438 1-411 isoform P97438-2 F185L): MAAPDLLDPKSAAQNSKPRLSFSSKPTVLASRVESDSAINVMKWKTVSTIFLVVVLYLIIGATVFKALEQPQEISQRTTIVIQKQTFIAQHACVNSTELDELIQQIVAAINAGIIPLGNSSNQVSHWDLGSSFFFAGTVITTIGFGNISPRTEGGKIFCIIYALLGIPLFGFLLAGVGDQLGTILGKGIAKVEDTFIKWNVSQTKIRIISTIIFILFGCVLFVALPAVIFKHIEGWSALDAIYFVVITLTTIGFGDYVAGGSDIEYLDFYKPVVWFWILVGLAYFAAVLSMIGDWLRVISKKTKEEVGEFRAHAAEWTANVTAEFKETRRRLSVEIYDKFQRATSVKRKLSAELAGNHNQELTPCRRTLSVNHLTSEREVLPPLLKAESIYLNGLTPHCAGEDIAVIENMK
The test is described as follows: TEVC of K2P2.1(TREK-1) mutant F185L. As to conditions: Xenopus oocytes. An excerpt: (§1) To identify K2P2.1(TREK-1) M2 residues that might participate in the BL-1249 response, we mapped the residues that differ between K2P2.1(TREK-1) and K2P4.1(TRAAK) in the context of the K2P2.1(TREK-1) structure[6] (Figure 5B,C). Two K2P2.1(TREK-1) M2 residues stood out as candidates that could explain the reduction in BL-1249 response when the entire M2 helix was replaced with M2 from K2P4.1(TRAAK). One is at the M2/M4 interface and occurs between Phe172 and Arg297 via a π–cation interaction that would be lost when Phe172 is replaced with the equivalent K2P4.1(TRAAK) residue Met134 (Figure 5C, right inset). […] To assess the importance of these interactions in the context of BL-1249 response, we made the K2P2.1(TREK-1) mutants F172M and F185L and measured their responses to BL-1249 (Figure 5D). […]
(§2) Xenopus laevis oocytes were harvested in accordance with UCSF IACUC protocol AN129690 and digested in calcium-free ND-96 (96 mM NaCl, 2 mM KCl, 3.8 mM MgCl2) immediately following harvest, as previously described.[6],[10] […] Defolliculated stage V–VI oocytes were injected with 0.2–6.0 ng of mRNA in 50 nL, and currents were recorded 24–48 h after injection. mRNA was synthesized from plasmid DNA using mMessage mMachine Kit (T7 promoter, Ambion, Life Technologies) and purified using RNEasy Kit (Qiagen). […]

Test [3] deals with T3, K2P4.1(TRAAK) L147F (Mus musculus, UniProt O88454, L147F).
T3 construct: expressed in transfected cells; host or cells: Xenopus laevis oocytes, mRNA injected
T3 sequence (O88454 whole entry L147F): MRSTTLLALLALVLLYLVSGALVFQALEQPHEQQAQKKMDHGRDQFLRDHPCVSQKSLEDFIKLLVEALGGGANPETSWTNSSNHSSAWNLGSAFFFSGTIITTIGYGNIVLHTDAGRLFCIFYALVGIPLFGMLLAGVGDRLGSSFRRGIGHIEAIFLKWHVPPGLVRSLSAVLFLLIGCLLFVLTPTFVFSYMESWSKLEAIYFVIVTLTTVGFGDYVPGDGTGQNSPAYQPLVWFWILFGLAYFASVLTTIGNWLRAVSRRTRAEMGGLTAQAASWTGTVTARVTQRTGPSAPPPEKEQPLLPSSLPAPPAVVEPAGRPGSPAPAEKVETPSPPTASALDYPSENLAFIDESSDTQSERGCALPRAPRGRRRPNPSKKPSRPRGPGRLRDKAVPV
In words: TEVC of K2P4.1(TRAAK) mutant L147F. The conditions noted are these: Xenopus oocytes.
Excerpt: as §1, §2

T1 sequence (Q8BUW1 whole entry): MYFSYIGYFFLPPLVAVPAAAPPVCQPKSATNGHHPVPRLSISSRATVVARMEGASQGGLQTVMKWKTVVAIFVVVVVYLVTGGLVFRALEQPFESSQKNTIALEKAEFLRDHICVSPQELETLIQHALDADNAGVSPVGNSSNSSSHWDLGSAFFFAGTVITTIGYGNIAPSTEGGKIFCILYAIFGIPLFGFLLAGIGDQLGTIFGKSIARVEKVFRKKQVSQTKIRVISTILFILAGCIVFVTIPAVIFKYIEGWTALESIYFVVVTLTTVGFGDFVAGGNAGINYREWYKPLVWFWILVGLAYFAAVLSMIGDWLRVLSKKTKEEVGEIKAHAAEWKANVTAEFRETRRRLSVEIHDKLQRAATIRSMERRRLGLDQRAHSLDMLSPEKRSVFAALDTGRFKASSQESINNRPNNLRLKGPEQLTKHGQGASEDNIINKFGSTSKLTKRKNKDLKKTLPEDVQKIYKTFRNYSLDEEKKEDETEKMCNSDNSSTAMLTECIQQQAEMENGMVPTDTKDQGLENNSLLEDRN

A word on the EC50: it is the concentration at which the effect is half-maximal. With `c1ccc(-c2nnn[nH]2)c(Nc2cccc3c2CCCC3)c1` [BL-1249, (5,6,7,8-tetrahydro-naphthalen-1-yl)-[2-(1H-tetrazol-5-yl)-phenyl]-amine], the figures for the EC50 in test [1] (I/I0 at 0 mV), in test [2] and in test [3] were 8 ± 0.8 µM, 27 ± 5 µM and 27 ± 4 µM, respectively. In addition, in test [1] (extracellular application of 10 μM), the “K2P10.1(TREK-2) current response” value is recorded as “clear activation responses”.

Source of the values: paper PMC6302903, “Protein and Chemical Determinants of BL-1249 Action and Selectivity for K2P Channels” (ACS Chemical Neuroscience, 2018).
